Laboratory results published in patent US20250171457A1, “NITROGEN-CONTAINING HETEROCYCLIC COMPOUND HAVING NRF2 ACTIVATION EFFECT” (CHUGAI SEIYAKU KABUSHIKI KAISHA, priority 2022, published 2025).
pEC50: −log10 of the molar value.

system: Nrf2 transcriptional activity (pARE-Luc reporter) in HepG2 cells; assay: In vitro Nrf2 transcriptional activity measurement by ARE-dependent reporter assay in HepG2 cell; type: cell-based, human; conditions: Homo sapiens; HepG2 cells transfected with pARE-Luc, 4 hours at 37° C.; luciferase activity of Example 1-54 or Example 17-23 at 3.75 μM defined as 100%
In short: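 Luminescence readout (Bright-Glo) after 4 h, 37° C compound exposure of HepG2 cells carrying the ARE-luciferase vector pGL4.37. Each well converted to % response versus reference compound at 3.75 μM, and EC50 derived from dose-response curves.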

| SMILES | pEC50 |
| --- | --- |
| O=C(O)c1cc(F)c(-c2cccc3c2OCN(C(=O)c2c(Cl)cc(N4CC5(CN(CC6(F)COC6)C5)C4)cc2Cl)C3)cc1N1C2CCC1COC2 [Compound 7-1, 4-[3-[2,6-Dichloro-4-[6-[(3-fluorooxetan-3-yl)methyl]-2,6-diazaspiro[3.3]heptan-2-yl]benzoyl]-2,4-dihydro-1,3-benzoxazin-8-yl]-5-fluoro-2-(3-oxa-8-azabicyclo[3.2.1]octan-8-yl)benzoic acid] | 8.32 |
| COCCN1CC2(C1)CN(c1cc(Cl)c(C(=O)N3COc4c(cccc4-c4cc(N5C6CCC5COC6)c(C(=O)O)cc4F)C3)c(Cl)c1)C2 [Compound 7-3, 4-[3-[2,6-Dichloro-4-[6-(2-methoxyethyl)-2,6-diazaspiro[3.3]heptan-2-yl]benzoyl]-2,4-dihydro-1,3-benzoxazin-8-yl]-5-fluoro-2-(3-oxa-8-azabicyclo[3.2.1]octan-8-yl)benzoic acid] | 7.74 |
| O=C(O)c1cc(F)c(-c2cccc3c2OCN(C(=O)c2c(Cl)cc(N4CC5(CCN5CC(F)F)C4)cc2Cl)C3)cc1N1C2CCC1COC2 [Compound 7-4, 4-[3-[2,6-Dichloro-4-[1-(2,2-difluoroethyl)-1,6-diazaspiro[3.3]heptan-6-yl]benzoyl]-2,4-dihydro-1,3-benzoxazin-8-yl]-5-fluoro-2-(3-oxa-8-azabicyclo[3.2.1]octan-8-yl)benzoic acid] | 8.37 |
| O=C(O)c1cc(F)c(-c2cccc3c2OCN(C(=O)c2c(Cl)cc(N4CC5(CN(CC(F)(F)F)C5)C4)cc2Cl)C3)cc1N1C2CCC1COC2 [Compound 7-5, 4-[3-[2,6-Dichloro-4-[6-(2,2,2-trifluoroethyl)-2,6-diazaspiro[3.3]heptan-2-yl]benzoyl]-2,4-dihydro-1,3-benzoxazin-8-yl]-5-fluoro-2-(3-oxa-8-azabicyclo[3.2.1]octan-8-yl)benzoic acid] | 8.43 |
| COCCN1CCC12CN(c1cc(Cl)c(C(=O)N3COc4c(cccc4-c4cc(N5C6CCC5COC6)c(C(=O)O)cc4F)C3)c(Cl)c1)C2 [Compound 7-6, 4-[3-[2,6-Dichloro-4-[1-(2-methoxyethyl)-1,6-diazaspiro[3.3]heptan-6-yl]benzoyl]-2,4-dihydro-1,3-benzoxazin-8-yl]-5-fluoro-2-(3-oxa-8-azabicyclo[3.2.1]octan-8-yl)benzoic acid] | 8.27 |
| CC(C)(C#N)CN1CC2(C1)CN(c1cc(Cl)c(C(=O)N3COc4c(cccc4-c4cc(N5C6CCC5COC6)c(C(=O)O)cc4F)C3)c(Cl)c1)C2 [Compound 7-7, 4-[3-[2,6-Dichloro-4-[6-(2-cyano-2-methylpropyl)-2,6-diazaspiro[3.3]heptan-2-yl]benzoyl]-2,4-dihydro-1,3-benzoxazin-8-yl]-5-fluoro-2-(3-oxa-8-azabicyclo[3.2.1]octan-8-yl)benzoic acid] | 8.47 |
| COCCN1CCN(c2cc(Cl)c(C(=O)N3COc4c(cccc4-c4cc(N5C6CCC5COC6)c(C(=O)O)cc4F)C3)c(Cl)c2)[C@@H](C)C1 [Compound 7-8, 4-[3-[2,6-Dichloro-4-[(2S)-4-(2-methoxyethyl)-2-methylpiperazin-1-yl]benzoyl]-2,4-dihydro-1,3-benzoxazin-8-yl]-5-fluoro-2-(3-oxa-8-azabicyclo[3.2.1]octan-8-yl)benzoic acid] | 8.49 |
| COCCN1CCN(c2cc(Cl)c(C(=O)N3COc4c(cccc4-c4cc(N5C6CCC5COC6)c(C(=O)O)cc4F)C3)c(Cl)c2)[C@H](C)C1 [Compound 7-9, 4-[3-[2,6-Dichloro-4-[(2R)-4-(2-methoxyethyl)-2-methylpiperazin-1-yl]benzoyl]-2,4-dihydro-1,3-benzoxazin-8-yl]-5-fluoro-2-(3-oxa-8-azabicyclo[3.2.1]octan-8-yl)benzoic acid] | 8.08 |
| COCCN1CC2CC(C1)N2c1cc(Cl)c(C(=O)N2COc3c(cccc3-c3cc(N4C5CCC4COC5)c(C(=O)O)cc3F)C2)c(Cl)c1 [Compound 7-10, 4-[3-[2,6-Dichloro-4-[3-(2-methoxyethyl)-3,6-diazabicyclo[3.1.1]heptan-6-yl]benzoyl]-2,4-dihydro-1,3-benzoxazin-8-yl]-5-fluoro-2-(3-oxa-8-azabicyclo[3.2.1]octan-8-yl)benzoic acid] | 7.57 |
| COCCN1C2CCC1CN(c1cc(Cl)c(C(=O)N3COc4c(cccc4-c4cc(N5C6CCC5COC6)c(C(=O)O)cc4F)C3)c(Cl)c1)C2 [Compound 7-11, 4-[3-[2,6-Dichloro-4-[8-(2-methoxyethyl)-3,8-diazabicyclo[3.2.1]octan-3-yl]benzoyl]-2,4-dihydro-1,3-benzoxazin-8-yl]-5-fluoro-2-(3-oxa-8-azabicyclo[3.2.1]octan-8-yl)benzoic acid] | 8.49 |
| COCCN1CC2CCC(C1)N2c1cc(Cl)c(C(=O)N2COc3c(cccc3-c3cc(N4C5CCC4COC5)c(C(=O)O)cc3F)C2)c(Cl)c1 [Compound 7-12, 4-[3-[2,6-Dichloro-4-[3-(2-methoxyethyl)-3,8-diazabicyclo[3.2.1]octan-8-yl]benzoyl]-2,4-dihydro-1,3-benzoxazin-8-yl]-5-fluoro-2-(3-oxa-8-azabicyclo[3.2.1]octan-8-yl)benzoic acid] | 8.64 |
| O=C(O)c1cc(F)c(-c2cccc3c2OCN(C(=O)c2c(Cl)cc(N4CC5CCC(C4)N5CC(F)F)cc2Cl)C3)cc1N1C2CCC1COC2 [Compound 7-13, 4-[3-[2,6-Dichloro-4-[8-(2,2-difluoroethyl)-3,8-diazabicyclo[3.2.1]octan-3-yl]benzoyl]-2,4-dihydro-1,3-benzoxazin-8-yl]-5-fluoro-2-(3-oxa-8-azabicyclo[3.2.1]octan-8-yl)benzoic acid] | 8.24 |
| COCCN1C2CC1CN(c1cc(Cl)c(C(=O)N3COc4c(cccc4-c4cc(N5C6CCC5COC6)c(C(=O)O)cc4F)C3)c(Cl)c1)C2 [Compound 7-14, 4-[3-[2,6-Dichloro-4-[6-(2-methoxyethyl)-3,6-diazabicyclo[3.1.1]heptan-3-yl]benzoyl]-2,4-dihydro-1,3-benzoxazin-8-yl]-5-fluoro-2-(3-oxa-8-azabicyclo[3.2.1]octan-8-yl)benzoic acid] | 7.62 |
| O=C(O)c1cc(F)c(-c2cccc3c2OCN(C(=O)c2c(Cl)cc(N4CC5CCC(C4)N5CC4(F)COC4)cc2Cl)C3)cc1N1C2CCC1COC2 [Compound 7-15, 4-[3-[2,6-Dichloro-4-[8-[(3-fluorooxetan-3-yl)methyl]-3,8-diazabicyclo[3.2.1]octan-3-yl]benzoyl]-2,4-dihydro-1,3-benzoxazin-8-yl]-5-fluoro-2-(3-oxa-8-azabicyclo[3.2.1]octan-8-yl)benzoic acid] | 8.60 |
| COCCN1C[C@H]2CC[C@@H]1CN2c1cc(Cl)c(C(=O)N2COc3c(cccc3-c3cc(N4C5CCC4COC5)c(C(=O)O)cc3F)C2)c(Cl)c1 [Compound 7-16, 4-[3-[2,6-Dichloro-4-[(1R,4R)-5-(2-methoxy-ethyl)-2,5-diazabicyclo[2.2.2]octan-2-yl]benzoyl]-2,4-dihydro-1,3-benzoxazin-8-yl]-5-fluoro-2-(3-oxa-8-azabicyclo[3.2.1]octan-8-yl)benzoic acid] | 8.13 |
| COCCN1C[C@@H]2CC[C@H]1CN2c1cc(Cl)c(C(=O)N2COc3c(cccc3-c3cc(N4C5CCC4COC5)c(C(=O)O)cc3F)C2)c(Cl)c1 [Compound 7-17, 4-[3-[2,6-Dichloro-4-[(1S,4S)-5-(2-methoxy-ethyl)-2,5-diazabicyclo[2.2.2]octan-2-yl]benzoyl]-2,4-dihydro-1,3-benzoxazin-8-yl]-5-fluoro-2-(3-oxa-8-azabicyclo[3.2.1]octan-8-yl)benzoic acid] | 8.05 |
| COCC(COC)N1C2CCC1CN(c1cc(Cl)c(C(=O)N3COc4c(cccc4-c4cc(N5C6CCC5COC6)c(C(=O)O)cc4F)C3)c(Cl)c1)C2 [Compound 7-18, 4-[3-[2,6-Dichloro-4-[8-(1,3-dimethoxypropan-2-yl)-3,8-diazabicyclo[3.2.1]octan-3-yl]benzoyl]-2,4-dihydro-1,3-benzoxazin-8-yl]-5-fluoro-2-(3-oxa-8-azabicyclo[3.2.1]octan-8-yl)benzoic acid] | 8.77 |
| COCCN1CCC2(C1)CN(c1cc(Cl)c(C(=O)N3COc4c(cccc4-c4cc(N5C6CCC5COC6)c(C(=O)O)cc4F)C3)c(Cl)c1)C2 [Compound 8-1, 4-[3-[2,6-Dichloro-4-[7-(2-methoxyethyl)-2,7-diazaspiro[3.4]octan-2-yl]benzoyl]-2,4-dihydro-1,3-benzoxazin-8-yl]-5-fluoro-2-(3-oxa-8-azabicyclo[3.2.1]octan-8-yl)benzoic acid] | 8.80 |
| O=C(O)c1cc(F)c(-c2cccc3c2OCN(C(=O)c2c(Cl)cc(N4CCN(CC(F)F)CC4)cc2Cl)C3)cc1N1C2CCC1COC2 [Compound 8-2, 4-[3-[2,6-Dichloro-4-[4-(2,2-difluoroethyl)piperazin-1-yl]benzoyl]-2,4-dihydro-1,3-benzoxazin-8-yl]-5-fluoro-2-(3-oxa-8-azabicyclo[3.2.1]octan-8-yl)benzoic acid] | 8.40 |
| COCCN1CCN(c2cc(Cl)c(C(=O)N3COc4c(cccc4-c4cc(N5C6CCC5COC6)c(C(=O)O)cc4F)C3)c(Cl)c2)CC1(C)C [Compound 8-3, 4-[3-[2,6-Dichloro-4-[4-(2-methoxyethyl)-3,3-dimethylpiperazin-1-yl]benzoyl]-2,4-dihydro-1,3-benzoxazin-8-yl]-5-fluoro-2-(3-oxa-8-azabicyclo[3.2.1]octan-8-yl)benzoic acid] | 8.59 |
| COCCN1[C@H](C)CN(c2cc(Cl)c(C(=O)N3COc4c(cccc4-c4cc(N5C6CCC5COC6)c(C(=O)O)cc4F)C3)c(Cl)c2)C[C@@H]1C [Compound 8-4, 4-[3-[2,6-Dichloro-4-[meso-4-(2-methoxyethyl)-3,5-dimethylpiperazin-1-yl]benzoyl]-2,4-dihydro-1,3-benzoxazin-8-yl]-5-fluoro-2-(3-oxa-8-azabicyclo[3.2.1]octan-8-yl)benzoic acid] | 8.44 |
